Data on ten molecules can be found in patent US4863932A, “Squalene oxide cyclase inhibitors and therapeutic use thereof” (Somatogenetics International, Inc., priority 1988, dated 1989).

In data set [1] the test system is cyclases of higher plants. Particulars: Duriatti et al. 1985; cited from earlier work.
Data set [2] deals with SOC. Particulars: Duriatti et al. 1985; cited from earlier work.
Data set [3] concerns sterol synthesis in primary rat hepatocytes. In words: Inhibition of sterol synthesis in primary rat hepatocytes ([3H]-acetate pulse, digitonide precipitation). Format: cell-based. The protocol:
Primary rat hepatocytes (2.2×10^6 cells/60 mm plate) were incubated overnight with various concentrations of inhibitor. The cells are then pulsed for 1 hour with tritiated acetate, harvested by centrifugation and the lipids extracted (Bligh, E. G. and Dyer, W. J. Can. J. Biochem. Physiol. 1959, 37. 911-917). Polar lipid are separated from neutral lipids by silicic acid chromatography. The polar lipids are collected and counted for radioactive acetate incorporation, and used as control for total acetate metabolism. The neutral lipid fraction is saponified and sterols precipitated with digitonide. The digitonide precipitate is counted to measure total incorporation of radioactive acetate into sterols.
lnhibition of sterol synthesis by PCR II-23 was determined as set forth in Example 1.

The test system of data set [4] is LDL receptor of HepG2 cells. Nature of the data set: Effect on the LDL receptor of HepG2 cells (125I-LDL binding, internalization, degradation). Format: cell-based. The following applies: for 125I-LDL Binding / 125I-LDL Internal / 125I-LDL Degradation: HepG2 cells; for 125I-LDL Binding: untreated 57 ± 3; for 125I-LDL Internal: untreated 374 ± 9; for 125I-LDL Degradation: untreated 701 ± 38; for LDL BINDING: ± SEM. The protocol: We have compared LA-I-140 and LN-I-83 with the conventional squalene oxide cyclase inhibitors U18666A and TMD by studying their effect on the LDL receptor of HepG2 cells.
The assay is essentially as described by Goldstein, Basu and Brown (Methods in Enzymology, 98: 241-260, 1983). Briefly, confluent cultures of HepG2 cells are incubated for 24 hours in cholesterol-free medium to induce LDL receptors. Test compounds are added to the medium at appropriate concenrations during this incubation. At the end of 24 hours [^125 I]labeled LDL (200-400 cpm/ng) is added to the medium (10-50 ug LDL protein/ml) and the cells are incubated at 37° C. for 3-6 hours.
(a) Degradation of ^125 I-LDL: The culture medium is removed from the monolayer of cells and undegraded LDL is precipitated with 10% (w/v) trichloroacetic acid.
The supernatant fraction is treated with 5% (w/v) silver nitrate to precipitate any free iodine. The radioactivity in the final supernatant fraction, which represents monoiodotyrosine, the proteolytic degradation product of ^125 I-LDL, is measured in a gamma counter.
(b) Specific binding of ^125 I-LDL: The cell monolayers are washed in a cold room (4° C.) three times rapidly with ice-cold buffer B (150 mM NaCl, 50 mM TrisHCl, pH 7.4 and 2 mg/ml bovine serum albumin). Each monolayer is incubated in buffer B for 10 minutes followed by one wash with buffer C (buffer B with bovine serum albumin omitted). Receptor-boundLDL is then released form cell surface by adding buffer D (50 mM NaCl, 10 mM HEPES, pH 7.4, 4 mg/ml dextran sulfate) and incubating at 4° C for 60 minutes on a rotary shaker (60 rotations per minute). An aliquot of buffer D is counted to determine the amount of ^125 I-LDL released from cell surface.
Internalization of ^125 I-LDL: After removal of buffer D, the cell monolayers are dissolved in 0.1 N NaOH by incubation overnight at 37° C. in a humidified incubator. The alkaline digest is briefly homogenized with the aid of a sonicator and aliquots are withdrawn for the determination of internalized radioactivity and for measurement of cell protein. All values are normalized for 1 mg of cell protein. The results are shown n Table 1 below:
In the case of PCR-II-23 and PCR-II-8B, we have examined their binding to the LDL receptors both when administered alone and in the presence of "down" regulators of this receptor (Table 2).

Data set [5] deals with T1, squalene oxide cyclase (Rattus norvegicus, UniProt P48450).
T1 sequence (P48450 1-733): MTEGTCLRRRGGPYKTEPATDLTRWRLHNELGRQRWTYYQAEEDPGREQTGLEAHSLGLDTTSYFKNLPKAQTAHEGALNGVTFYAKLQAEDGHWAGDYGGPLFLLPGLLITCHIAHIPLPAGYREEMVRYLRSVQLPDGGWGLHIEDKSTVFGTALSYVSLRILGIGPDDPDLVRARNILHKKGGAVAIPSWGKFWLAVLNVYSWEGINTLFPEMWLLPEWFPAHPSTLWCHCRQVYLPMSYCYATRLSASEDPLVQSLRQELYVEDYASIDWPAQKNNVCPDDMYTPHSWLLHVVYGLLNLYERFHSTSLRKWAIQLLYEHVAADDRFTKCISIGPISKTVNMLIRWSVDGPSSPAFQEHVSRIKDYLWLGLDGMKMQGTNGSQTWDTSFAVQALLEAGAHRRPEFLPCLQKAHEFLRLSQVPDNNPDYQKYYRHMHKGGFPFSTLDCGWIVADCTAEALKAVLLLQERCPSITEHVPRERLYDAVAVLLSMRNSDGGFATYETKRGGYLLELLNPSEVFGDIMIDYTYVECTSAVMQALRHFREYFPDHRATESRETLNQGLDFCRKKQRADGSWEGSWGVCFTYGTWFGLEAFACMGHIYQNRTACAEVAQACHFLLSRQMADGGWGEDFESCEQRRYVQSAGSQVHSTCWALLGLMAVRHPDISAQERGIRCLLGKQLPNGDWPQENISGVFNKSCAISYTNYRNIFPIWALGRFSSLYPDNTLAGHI
In words: biochemical. Format: biochemical. Further details: Using a rat liver microsomal squalene oxide cyclase assay; from tissue; host or cells: rat liver microsomes / homogenate. Particulars: for IC50: 40 uM [3H]-oxidosqualene, pH 7.5, anaerobic, 1 hour, 37° C, read-out: I50 (dosage needed to suppress half the SOC activity); for effectiveness as SOC inhibitor relative to TMD: ratio of I50 values, TMD as reference. As for the experimental part: Using a rat liver microsomal squalene oxide cyclase assay, we have determined the dose at which these drugs and TMD reduce squalene oxide cyclase activity to one-half its normal value. Rat liver microsomes ([…] -rat liver homogenate) were prepared by the method of Popjak, G (Methods in Enzymology, 1969 XV, 393-545). The reaction mixture contained [^3 H]-(S)-[…] (40 uM final), Tween-80 (0.15% w/v final), 0.1 M potassium phosphate, pH 7.5, and inhibitor of varying concentration all in 0.8 ml. The reaction was initiated by the addition of 0.2 ml of the SIO homogenate. The reaction was flushed with N2 and incubated anaerobically for 1 hour at 37° C. The reaction was terminated by addition of 1 ml of 6% potassium hydroxide in methanol (w/v). […] After reduction to […], cold lanosterol was added as carrier, and the extract was applied to a silica TLC plate. After development in methylene chloride, the spot corresponding to lanosterol was scraped off and counted for radioactivity. The I50 for each inhibitor was determined from a plot of radioactive lanosterol formed versus inhibitor concentration.

The target of data set [6] is T1, squalene oxide cyclase.
For data set [7] the following is noted: incubation with rat liver homogenate; Nelson et al. 1978; cited from earlier work.
In data set [8] the test system is cholesterol biosynthesis in rat liver enzyme preparations. Particulars: Nelson et al. 1978; cited from earlier work.
Data set [9] concerns squalene oxide cyclase. In words: SOC inhibition in in vivo experiments.
Data set [10] relates to cholesterol biosynthesis in CHO cells. Particulars: Nelson et al. 1978; cited from earlier work.
Data set [11] concerns lymphocytes. Particulars: in vivo; cited from earlier work.
[12] abbreviates: inhibitor with suppressor 25-hydroxy-cholesterol (5 ug/ml), HDF 34 ± 3.
Where [13] appears, read: inhibitor with suppressor LDL (200 ug/ml), HDF 27 ± 2.
Where [14] appears, read: inhibitor with suppressor Mevalonate, HDF 19 ± 2.
The mark [15] stands for this setting: suppressor: none, HDF control 88 ± 6.

Converted amounts (≈) assume the structure as drawn.

Regarding `C[C@@H]1[C@@H](O)CC[C@]2(C)CCCC[C@@H]12` (relative stereo) [4,10 beta-dimethyl analogue], in data set [1], the “effect on the cyclases of higher plants” value was “virtually no effect”. Further, in data set [2], the “type of inhibition of SOC” value was “nonoompetitive inhibitors of SOC”.

For `CC1(C)NCC[C@]2(C)CCCC[C@@H]12` (relative stereo) [LA-I-140, 4,4,10-trimethyl-trans-3-azadecalin], in data set [3] (Hepatocyte, primary rat hepatocytes, overnight incubation, read-out: concentration reducing sterol synthesis to one-half of normal levels), the IC50 was 40 µg/mL (≈ 221 µM). Besides, in [4] (20 ug/ml), the “125I-LDL Binding” value was 75 ± 3 ng/mg cell protein, the “125I-LDL Internal” value is given as 642 ± 96 ng/mg cell protein and the “125I-LDL Degradation” value is on record as 408 ± 61 ng/mg cell protein.

As to `CC1(C)[C@@H](O)CC[C@]2(C)CCC(F)(F)C[C@@H]12` (relative stereo) [LN I-83, 4,4,10 beta-Trimethyl-7,7-difluoro-trans-decal-3beta-ol], in [4] (20 ug/ml), the “125I-LDL Binding” value is 105 ± 12 ng/mg cell protein, the “125I-LDL Internal” value is 687 ± 152 ng/mg cell protein and the “125I-LDL Degradation” value worked out at 864 ± 47 ng/mg cell protein. Further, in data set [5], the IC50 came out at 430 µM.

`CC1(C)[C@@H](O)CC[C@]2(C)CCC3(CC3)C[C@@H]12` (relative stereo) [PCR II-8B, (4,4,10beta-trimethyl-trans-decal-3 beta-ol)--7-spiro-1'-cyclopropane]: the “sterol biosynthesis by primary rat hepatocytes” value in data set [3] (50 ug/ml) is reported as “no detectable sterol biosynthesis”. For the same molecule, the “LDL BINDING” value in data set [4] (setting [12]) amounted to 69 ± 4 ng/mg cell protein; in data set [4] (setting [13]), 39 ± 4 ng/mg cell protein; in [4] (setting [14]), 176 ± 17 ng/mg cell protein; in [4] (setting [15]), 278 ± 3 ng/mg cell protein. Further, the IC50 in data set [5] is 80 µM. In addition, the “effectiveness as SOC inhibitor relative to TMD” value in data set [5] was approximately 5.4 times.

As to `CC1(C)CC[C@@]2(C)CC[C@H](O)C(C)(C)[C@@H]2C1` (relative stereo) [PCR II-23, 4,4,7,7, 10beta-Pentamethvl-trans-decal-3beta-ol], the “LDL BINDING” value in data set [4] (setting [12]) was determined as 117 ± 11 ng/mg cell protein; in data set [4] (setting [13]), 36 ± 2 ng/mg cell protein; in data set [4] (setting [14]), 196 ± 30 ng/mg cell protein; in data set [4] (setting [15]), 281 ± 18 ng/mg cell protein. Besides, the IC50 in data set [5] was determined as 160 µM. Moreover, the “effectiveness as SOC inhibitor relative to TMD” value in data set [5] was “about 2.7 times”.

`CC1(C)[C@@H](O)CC[C@]2(C)CCCC[C@@H]12` (relative stereo) [TMD, 4, 4,10 beta-trimethyl-trans-decal-3beta-ol]: the “effect on the cyclases of higher plants” value in data set [1] is reported as “virtually no effect”. Besides, the “inhibition of SOC in rat hepatocytes” value in [6] is “unexpectedly poor inhibitor of SOC”. The “major product of metabolism” value in [7] is 4,4,10beta-trimethyl-trans-decalin-3beta, 7beta-diol was isolated as the major product of TMD metabolism. The “inhibition of cholesterol biosynthesis” value in data set [8] is listed as “specifically inhibited cholesterol biosynthesis”. The “inhibition of SOC in vivo” value in data set [9] was “unexpectedly poor inhibitor of SOC”. The “inhibition of cholesterol biosynthesis” value in [10] was “specifically inhibited cholesterol biosynthesis”. Moreover, in data set [4] (20 ug/ml), the “125I-LDL Binding” value worked out at 130 ± 11 ng/mg cell protein, the “125I-LDL Internal” value was 891 ± 202 ng/mg cell protein and the “125I-LDL Degradation” value turned out to be 990 ± 71 ng/mg cell protein. Further, in [5], the “inhibition of squalene oxide cyclase in in vitro microsomal assays” value was “effective inhibitor of squalene oxide cyclase” and the IC50 is 430 µM. Also, the “type of inhibition of SOC” value in [2] was “nonoompetitive inhibitors of SOC”.

Take `C[C@H](CCCC(C)(C)O)[C@H]1CC[C@H]2[C@@H]3CC=C4C[C@@H](O)CC[C@]4(C)[C@H]3CC[C@]12C` [25-hydroxy-cholesterol]: the “LDL BINDING” value in [4] (suppressor alone in HDF, 5 ug/ml, no suppressor 88 ± 6) turned out to be 34 ± 3 ng/mg cell protein.

In the case of `CC(O)(CCO)CC(=O)O` (stereo not shown) [Mevalonate], the “LDL BINDING” value in data set [4] (suppressor alone in HDF, no suppressor 88 ± 6) is 19 ± 2 ng/mg cell protein.

Regarding `CC[C@H](C)C(=O)O[C@H]1C[C@@H](C)C=C2C=C[C@H](C)[C@H](CC[C@@H]3C[C@@H](O)CC(=O)O3)[C@H]21` [Mevinolin], in data set [11], the “defects in glycosylation of proteins in lymphocytes” value is on record as “defects in the glycosylation of proteins in lymphocytes which can persist for ten months after administration”. The “up regulation of LDL receptors in HepG2 cells” value in data set [4] (culture medium free of sterol supplements (HDF)) is given as “equally effective in up regulation of LDL receptors”. Also, the “LDL BINDING” value in data set [4] (setting [12]) was 3 ± 2 ng/mg cell protein; in data set [4] (setting [13]) it was 38 ± 3 ng/mg cell protein; in data set [4] (setting [14]) it was 35 ± 2 ng/mg cell protein; in data set [4] (setting [15]) it was 213 ± 4 ng/mg cell protein.

Regarding `CCN(CC)CCO[C@H]1CC[C@@]2(C)C(=CC[C@@H]3[C@@H]2CC[C@]2(C)C(=O)CC[C@@H]32)C1` [U18666A], in [4] (5 ug/ml), the “125I-LDL Binding” value was 160 ± 4 ng/mg cell protein, the “125I-LDL Internal” value is given as 1093 ± 17 ng/mg cell protein and the “125I-LDL Degradation” value is recorded as 682 ± 141 ng/mg cell protein.
